Some test systems named below: EKVX NSCLC; HCC-2998 colon; IGROV1 ovarian; K-562 leukemia; MALME-3M melanoma; MDA-MB-435; NCI-H522 lung; SF-295 CNS; SK-OV-3 ovarian; T-47D breast.
Test in all cases: NCI-60 cell line screen, 48 h

The structures appear in SMILES notation. Several values for one entry are separate records, joined by “and”; a condition that tells them apart may be missing. Equal entries are not always repeated.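 All cell lines were grown in 96-well plates and treated with compound for 48 hours. Abbreviation: GI50, concentration required for 50% inhibition of growth. TGI: total growth inhibition.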

With `Cc1ccc2nc3c(n2c1)C(=O)C(=O)c1ccccc1-3`, the GI50 was 0.654 µM in the test on EKVX NSCLC; 0.707 µM in the test on HCC-2998 colon; 0.319 µM with IGROV1 ovarian; 61.2 nM in the test on K-562 leukemia; 157 nM with MALME-3M melanoma; 66.1 nM in the test on MDA-MB-435. Further, the GI50 with NCI-H522 lung is 0.216 µM; in the test with SF-295 CNS, 287 nM; in the test with SK-OV-3 ovarian, 1.01 µM; with T-47D breast, 0.389 µM. Besides, the TGI stood at 1.65 µM in the test with EKVX NSCLC; 2.19 µM in the test on HCC-2998 colon; 0.286 µM in the test with K-562 leukemia; 0.32 µM in the test with MALME-3M melanoma; 0.137 µM with MDA-MB-435; 0.538 µM with NCI-H522 lung. In addition, the TGI stood at 0.937 µM in the test on SF-295 CNS, 2.47 µM with SK-OV-3 ovarian and 1.74 µM with T-47D breast.
For the compound `COc1ccc(C2=N[C@@H](c3ccc(Cl)cc3)[C@@H](c3ccc(Cl)cc3)N2C(=O)N2CCNC(=O)C2)c(OC(C)C)c1`, the GI50 is 10.3 µM and 12.1 µM and 12.9 µM in the test with EKVX NSCLC; 14 µM and 15.7 µM and 12.8 µM in the test with HCC-2998 colon; 13.1 µM and 6.5 µM and 5.08 µM in the test with IGROV1 ovarian; 16500 nM and 17100 nM in the test with K-562 leukemia; 11200 nM and 2560 nM and 1150 nM with MALME-3M melanoma; 14200 nM and 13600 nM and 16100 nM in the test on MDA-MB-435. Further, the GI50 in the test with NCI-H522 lung was 14.6 µM and 13.6 µM and 16.3 µM; in the test on SF-295 CNS it was 12600 nM and 12900 nM and 14900 nM; in the test on SK-OV-3 ovarian it was 16.8 µM and 15.9 µM and 15.4 µM; in the test with T-47D breast, 14.6 µM and 10.5 µM and 15.2 µM. Moreover, the TGI in the test on EKVX NSCLC is 24.1 µM and 25.2 µM and 27.3 µM; in the test on HCC-2998 colon, 27.6 µM and 29.8 µM and 26 µM; in the test with IGROV1 ovarian it was 29.4 µM and 26.2 µM and 26.5 µM; with K-562 leukemia, 61.6 µM and 53.1 µM and 74.1 µM; in the test on MALME-3M melanoma it was 25.6 µM and 16.4 µM and 17.1 µM; in the test on MDA-MB-435, 27.9 µM and 27.5 µM and 33.3 µM. In addition, the TGI in the test on NCI-H522 lung was 28.5 µM and 27.3 µM and 31.1 µM; in the test on SF-295 CNS, 27.3 µM and 26.8 µM and 30.4 µM; in the test with SK-OV-3 ovarian it was 30.8 µM and 30.9 µM and 30.4 µM; in the test on T-47D breast, 30.4 µM and 27.4 µM and 40.6 µM.
Regarding `OCCn1cc(-c2cnc3nnn(Cc4ccc5ncccc5c4)c3n2)cn1`, the GI50 in the test on EKVX NSCLC was > 100 µM; in the test on HCC-2998 colon, > 100 µM; with IGROV1 ovarian it was > 100 µM; in the test on K-562 leukemia, > 100000 nM; in the test on MALME-3M melanoma, > 100000 nM; in the test with MDA-MB-435 it was > 100000 nM. Moreover, the GI50 in the test with NCI-H522 lung, in the test on SK-OV-3 ovarian and in the test with T-47D breast was > 100 µM each time. In addition, the TGI with EKVX NSCLC, with HCC-2998 colon, in the test on IGROV1 ovarian, in the test on K-562 leukemia, in the test on MALME-3M melanoma and in the test with MDA-MB-435 was > 100 µM throughout. Also, the TGI in the test with NCI-H522 lung, in the test on SF-295 CNS, in the test with SK-OV-3 ovarian and with T-47D breast was > 100 µM in each case.
With `CCOC(=O)Cn1c(-c2nonc2NC(=O)c2ccccc2F)nc2ccccc21`, the GI50 in the test with EKVX NSCLC was 28 µM; in the test with HCC-2998 colon, 31.7 µM; in the test with IGROV1 ovarian it was 9.85 µM; in the test on K-562 leukemia, 505 nM; with MALME-3M melanoma, 26600 nM; in the test on MDA-MB-435, 2250 nM. The GI50 is 12.7 µM in the test on NCI-H522 lung, 2770 nM in the test with SF-295 CNS, 21.3 µM in the test on SK-OV-3 ovarian and 44.1 µM in the test on T-47D breast. The TGI with EKVX NSCLC was > 100 µM; with HCC-2998 colon, > 100 µM; with IGROV1 ovarian it was > 100 µM; with K-562 leukemia, > 100 µM; in the test on MALME-3M melanoma, > 87 µM; with MDA-MB-435, > 100 µM. Also, the TGI in the test on NCI-H522 lung was > 78.9 µM; in the test on SF-295 CNS, > 55.2 µM; in the test with SK-OV-3 ovarian, > 100 µM; in the test on T-47D breast it was > 100 µM.
Regarding `c1ccc2cc(C[n+]3ccn(Cc4ccc5ccccc5n4)c3)ccc2c1`, the TGI with EKVX NSCLC was 7.34 µM and 31.4 µM; in the test on HCC-2998 colon it was 3.76 µM and 12.7 µM; in the test on IGROV1 ovarian, 3.19 µM and 9.03 µM; in the test on K-562 leukemia, 13.8 µM and 14.8 µM; with MALME-3M melanoma, 0.811 µM and 6.35 µM; with MDA-MB-435 it was 1.31 µM and 10.6 µM. Further, the TGI was 4.98 µM and 18.7 µM in the test on SF-295 CNS; 4.3 µM and 17.7 µM in the test with SK-OV-3 ovarian. Moreover, the GI50 was 0.389 µM and 2.65 µM in the test with HCC-2998 colon; 0.481 µM and 2.22 µM in the test on IGROV1 ovarian; 585 nM and 1700 nM in the test with K-562 leukemia; 235 nM and 1360 nM in the test with MALME-3M melanoma; 312 nM and 2460 nM in the test on MDA-MB-435; 0.275 µM and 2.3 µM in the test with NCI-H522 lung. The GI50 is 710 nM and 4460 nM in the test with SF-295 CNS; 0.671 µM and 3.64 µM in the test on SK-OV-3 ovarian; 0.239 µM and 2.32 µM in the test on T-47D breast.
For the compound `C=C(C)[C@@H]1CC[C@]2(C(=O)O)CC[C@]3(C)[C@H](CC[C@@H]4[C@@]5(C)C/C(=C/c6cccc(I)c6)C(=O)C(C)(C)[C@@H]5CC[C@]43C)[C@@H]12`, the GI50 was 2.65 µM with EKVX NSCLC; 2.69 µM with HCC-2998 colon; 2.57 µM in the test with IGROV1 ovarian; 2370 nM in the test on K-562 leukemia; 2460 nM in the test on MALME-3M melanoma; 2980 nM in the test on MDA-MB-435. The GI50 with NCI-H522 lung is 2.1 µM; in the test with SF-295 CNS, 2910 nM; with SK-OV-3 ovarian, 3.27 µM; in the test with T-47D breast, 2.9 µM. In addition, the TGI is 12.7 µM in the test with EKVX NSCLC; 9.69 µM with HCC-2998 colon; 8.7 µM with IGROV1 ovarian; 49.5 µM with K-562 leukemia; 6.65 µM in the test on MALME-3M melanoma; 9.74 µM in the test on MDA-MB-435. Besides, the TGI in the test with NCI-H522 lung amounted to 6.94 µM; with SF-295 CNS, 12.6 µM; in the test with SK-OV-3 ovarian, 11.9 µM; with T-47D breast, 19 µM.
`CCCCCCCCCCC[C@@H](C[C@H]1OC(=O)[C@H]1CCCCCC)OC(=O)[C@@H](CC(C)C)NC=O`: the GI50 with EKVX NSCLC is 27.4 µM; in the test on HCC-2998 colon, 5.31 µM; with IGROV1 ovarian it was 7.62 µM; in the test on K-562 leukemia, 4360 nM; in the test on MALME-3M melanoma, 15900 nM; with MDA-MB-435 it was 5770 nM. The GI50 is 5.56 µM in the test on NCI-H522 lung, 2080 nM in the test on SF-295 CNS, 10.1 µM in the test on SK-OV-3 ovarian and 13.3 µM in the test with T-47D breast. Further, the TGI is > 100 µM with EKVX NSCLC; 27.3 µM in the test with HCC-2998 colon; 55.7 µM in the test with IGROV1 ovarian; 47.3 µM in the test on K-562 leukemia; 41.7 µM in the test with MALME-3M melanoma; 60.3 µM in the test on MDA-MB-435. The TGI in the test on NCI-H522 lung was 26.4 µM; in the test with SF-295 CNS, 10.6 µM; in the test on SK-OV-3 ovarian, 62.8 µM; in the test on T-47D breast, > 100 µM.
